Test results from patent US6723710B2, “Compositions for inhibiting arginase activity” (The Trustees of the University of Pennsylvania, priority 1997, dated 2004).
Where “and” joins values, the source holds several entries; their conditions need not be identical. Equal entries are not always repeated. Entries after “also recorded” stand apart in the source; their conditions may differ. Where two headings read alike, the source gives them in different places. Values belong to the compound of their own block, whether it stands above or below them.

Columns and labels:
arginase [1] = biological target: T1, arginase (Rattus norvegicus, UniProt P07824); conditions: cited from earlier work
T1 sequence (P07824 1-323): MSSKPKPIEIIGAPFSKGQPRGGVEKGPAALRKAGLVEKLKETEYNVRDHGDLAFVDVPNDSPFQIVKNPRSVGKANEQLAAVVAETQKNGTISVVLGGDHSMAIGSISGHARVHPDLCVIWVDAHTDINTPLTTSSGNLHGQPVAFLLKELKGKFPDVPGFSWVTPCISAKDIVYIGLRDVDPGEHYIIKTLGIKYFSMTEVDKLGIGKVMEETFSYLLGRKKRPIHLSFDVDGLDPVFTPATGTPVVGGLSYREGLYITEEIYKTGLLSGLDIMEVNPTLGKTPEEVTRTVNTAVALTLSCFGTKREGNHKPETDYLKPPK

[2] = system: internal anal sphincter (IAS) smooth muscle; assay: NANC nerve-mediated relaxation of IAS smooth muscle strips by electrical field stimulation; parameters: species or system opossum (Didelphis virginiana); conditions: for reversal of L-NNA-suppressed IAS relaxation: with L-NNA, L-HO-Arg and ABHA 3×10^−4 molar; for decrease in IAS tension after L-HO-Arg: 3×10^−4 molar
Description: The entire anal canal was isolated carefully by dissection and transferred to a dissecting tray containing oxygenated (95% O2 plus 5% CO2) Krebs' solution. The composition of the Krebs' solution was as follows (in millimolar): NaCl, 118.07; KCl 4.69; […] MgSO4, 1.16; […] NaHCO3, 25 and glucose (Pufahl et al., 1995, Biochemistry 34:1930-1941; […] et al., 1993, Biochem. Biophys. Res. Commun. 196:1558-1565). The anal canal was cleaned of extraneous connective tissue and blood vessels. Following this, the anal canal was opened by making an incision along the longitudinal axis, and was pinned flat with the mucosal side facing up. The mucosa and submucosa were removed by sharp dissection. Circular smooth muscle strips were obtained from the whole circumference of the anal canal and divided into two equal strips (about 1×8 millimeters). Both ends of the muscle strips were secured with silk sutures (4-0: Ethicon Inc., Sommerville, N.J.) and used for the measurement of isometric tension. […] One end of each muscle strip was fixed to the bottom of the muscle bath with a tissue holder and the other end was attached to an isometric force transducer (model FT03; Grass Instruments Co., Quincy, Mass.) in order to measure isometric tension. Smooth muscle tension was recorded using a […] recorder (model […]; Beckman Instruments, Schiller Park, Ill.). […] J. Physiol. 255:[…]-[…]). Only those smooth muscle strips that developed spontaneous and steady tension and relaxed in response to electrical field stimulation (EFS) were used. EFS was delivered, via a pair of platinum wires, from a Grass stimulator (Model S88; Grass Instruments Co., Quincy, Mass.) connected in series to a Med-Lab […] (Med-Lab Instruments, Loveland, Colo.). […] These parameters of EFS are known to cause relaxation of IAS smooth muscle by selective activation of NANC myenteric neurons. Neurally-mediated relaxation of IAS smooth muscle strips was quantified in response to different frequencies of EFS. […] To determine the influence of arginase on NANC nerve-mediated relaxation of IAS, the effects of different doses of arginase on relaxation were first determined. […] The effectiveness of arginase inhibitors (L-OH-Arg and ABHA) on arginase-induced attenuation of EFS-induced IAS relaxation was then tested. Optimal doses of arginase and L-OH-Arg in IAS have been reported ([…] and […]. Pharmacol. Exp. Ther. 282:378-384). In order to determine the selectivity of arginase inhibitors in IAS, their effects on IAS relaxation suppressed by the NO synthase inhibitor L-NNA ([…]) were tested. […] To examine the physiological relevance of arginase inhibitors in IAS relaxation, the influence of selected concentrations of arginase inhibitors on EFS-induced IAS relaxation was examined. […] Each smooth muscle strip served as its own control. […] The results are expressed as means±standard error.

arginase [3] = conditions: read-out: Ki previously reported; cited from earlier work
rat liver arginase [4] = biological target: T2, rat liver arginase (Rattus norvegicus, UniProt P07824); assay: [14C-guanidino]-arginine arginase activity assay (Example 2); type: biochemical; conditions: 100 millimolar CHES, pH 9.0, 1 millimolar arginine; read-out: IC50 for inhibition of arginase
T2 sequence (P07824 1-323): T1 sequence (P07824 1-323)
Experimental: Arginase activity was assessed using the ^(14C-guanidino)-arginine assay of Rüegg et al. (1980, Anal. Biochem. 102:206-212), as described (Reczkowski et al., 1994, Arch. Biochem. Biophys. 312:31-37). […] […] et al., 1994, Biochem. Biophys. Res.

rectum arginase activity = assay: arginase activity in rectum homogenate; type: biochemical, opossum; conditions: rectum; read-out: IC50 for inhibition of arginase activity, rectum homogenate
Description: (§1) Tissue samples of the opossum internal anal sphincter muscle (IAS), adjoining rectal tissue, liver, and brain were homogenized using an ULTRATURRAX™ tissue homogenizer (Tekamr, Cincinnati, Ohio) in a solution comprising 10 millimolar Tris-HCl, 150 millimolar KCl, and 25 millimolar MnCl2, at pH 7.4. The homogenates were dialyzed overnight against the same solution. Dialyzed homogenates were centrifuged to remove insoluble material and concentrated with Amicon CENTRICON™ 30 microconcentrators to yield stock protein preparations having protein concentrations of 2.4 milligrams per milliliter for IAS smooth muscle, 3.6 milligrams per milliliter for rectal smooth muscle, 3 milligrams per milliliter for brain, and 17.5 milligrams per milliliter for liver. Protein concentrations were estimated with the Pierce Coomassie Protein Reagent kit using bovine serum albumin as a standard.
(§2) Arginase activity in tissue homogenates was evaluated using the radioactive L-[guanidino^14C]arginine assay of Rüegg and Russell (1980, Anal. Biochem. 102:206-212). Assays were performed using a solution comprising 100 millimolar CHES-NaOH and 0.1 millimolar MnCl2 at pH 9.0. The reactions were initiated by addition of 5 microliters of tissue homogenate to 45 microliters of reaction mixture that contained the CHES buffer, the appropriate concentration of arginine (0.5 to 5 millimolar) and about 5.0×10^4 counts per minute of L-[guanidino-^14C]arginine. IAS, rectal muscle, and brain homogenates were incubated with the assay mixture at room temperature for one hour, and the liver sample was incubated for 5 minutes. The reactions were stopped by addition of 200 microliters of a stop solution containing 0.25 molar acetic acid, 7 molar urea, and 10 millimolar arginase at pH 4.5. Arginase has essentially no activity at the low pH of the stop solution. [^14C] Urea was separated from non-reacted L-[guanidino-^14C]arginine by treatment with 200 μl of 1:1 v/v slurry of DOWEX™ 50W-X8 in water, and quantitated by adding 200 microliters of the supernatant from the DOWEX™ treatment to 3 milliliters of LIQUISCENT™ (National Diagnostics) for liquid scintillation counting in a Beckman LS 5000CE counter. The data were analyzed using double-reciprocal plots of the initial velocity measurements; standard errors were determined by regression analysis.
(§3) Assays in the presence of the inhibitors N^ω-hydroxy-L-arginine (1 to 100 micromolar) and ABHA (0.05 to 100 micromolar) were performed as described above. The amino acid D-ornithine served as a control in these experiments, since this amino acid, unlike L-omithine, is not an inhibitor of arginase.

liver arginase activity = assay: arginase activity in liver homogenate; type: biochemical, opossum; conditions: for potency against liver arginase activity relative to non-hepatic tissues: liver versus IAS, rectum, brain
Description: as §1, §2, §3

IAS arginase activity = assay: arginase activity in IAS homogenate; type: biochemical, opossum; conditions: IAS; read-out: IC50 for inhibition of arginase activity, IAS homogenate
Description: as §1
as §2, with “The reactions were stopped by addition of 200 microliters of a stop solution containing 0.25 molar acetic acid, 7 molar urea, and 10 millimolar arginase at pH 4.5. Arginase has essentially no activity at the low pH of the stop solution. [^14C]” left out, “analysis. […]” for “analysis.”

brain arginase activity = assay: arginase activity in brain homogenate; type: biochemical, opossum; conditions: brain; read-out: IC50 for inhibition of arginase activity, brain homogenate
Description: as §1
as §2, with “The reactions were stopped by addition of 200 microliters of a stop solution containing 0.25 molar acetic acid, 7 molar urea, and 10 millimolar arginase at pH 4.5. Arginase has essentially no activity at the low pH of the stop solution. [^14C]” left out, “analysis. […]” for “analysis.”

rat liver arginase [5] = biological target: T2, rat liver arginase; assay: continuous chromogenic arginase assay with substrate 1-nitro-3-guanidinobenzene (compound 18); type: biochemical; parameters: made in house; conditions: for tnpseudo (moles of inhibitor/mole of arginase): 2 millimolar compound 18 as substrate, pseudo-turnover number, smaller = better inhibition
Experimental: The activity of wild-type arginase was monitored spectrophotometrically using a Pharmacia BIOTECH ULTROSPEC™ 2000. Assays were performed in a solution comprising 100 micromolar MnCl2 and 50 millimolar bicine-NaOH (pH 9.0). […] Eadie-Hofstee plots were used to analyze the data.

arginase [6] = biological target: T1, arginase; assay: isothermal titration calorimetry; type: binding; parameters: made in house
Experimental: All calorimetry experiments were conducted on a MCS isothermal calorimeter from MicroCal, Inc. (Northampton, Mass.). Arginase was exhaustively dialyzed against a solution comprising 100 micromolar MnCl2 and 50 millimolar bicine-NaOH (pH 8.5). […] Prior to the titration experiment, samples were de-gassed under vacuum for 5 minutes. […] The contents of the sample cell were titrated with 30-40 aliquots (2.5 microliters each) of inhibitor (an initial 1 microliters injection was made, but not used in data analysis). After each injection, the heat change was measured and converted to the corresponding enthalpy value. The reaction mixture was continuously stirred at 400 rotations per minute during titration. Control experiments were carried out by titrating the inhibitor into the buffer solution under identical experimental conditions. Data analysis was performed using ORIGIN™ software provided with the instrument. The calorimetric data are presented with the background titrations subtracted from the experimental data. The amount of heat produced per injection was calculated by integration of the area under each peak. The data were fit to the following equation, […]

rat liver arginase [7] = biological target: T2, rat liver arginase; assay: radioactive L-[guanidino-14C]arginine arginase assay (Example 3); type: biochemical; parameters: made in house
Experimental: Assays were performed in 100 micromolar MnCl2, 100 millimolar CHES-NaOH (pH 9.0). The reactions were initiated by addition of 5 microliters of a circa 1 unit per milliliter enzyme solution to 45 microliters of reaction mixture containing CHES buffer, 1.4 millimolar L-arginine, about 5.0×10^4 counts per minute of L-[guanidino- ^14C]arginine, and variable concentrations of the appropriate inhibitor. After a 5-15 minute reaction time, 200 microliters of a stop solution containing 7 molar urea, 10 millimolar L-arginine, and 0.25 molar acetic acid (pH 4.5) was added to the reaction (arginase has essentially no activity under these conditions). [^14C]-Urea was separated from non-reacted L-[guanidino-^14 C]arginine by treatment with 200 microliters of a 1:1 (vol/vol) slurry of DOWEX™ 50 W-X8 in water, and quantitated by adding 200 microliters of the supernatant from the DOWEX™ treatment to 3 milliliters of LIQUISCINT™ (National Diagnostics) for liquid scintillation counting in a Beckman LS5000CE counter.

Compound: N=C(N)NCCC[C@H](N)C(=O)O [L-arginine]
kcat reported (arginase [1]; as substrate): 15,000±1200 reciprocal minutes
Km (arginase [1]; as substrate, read-out: KM reported): 1400 ± 300 µM
reversal of L-NNA-suppressed IAS relaxation [2]: significant and concentration-dependent reversal

Compound: N=C(NO)NCC[C@H](N)C(=O)O [N-hydroxy-nor-arginine]
Ki (arginase [3]): 0.5 µM

IC50 (rat liver arginase [4]): 80 µM
IC50 (rectum arginase activity): 42 µM
potency against liver arginase activity relative to non-hepatic tissues (liver arginase activity; listed as L-HO-Arg): 10-20 fold
potency against liver arginase activity relative to non-hepatic tissues (liver arginase activity; listed as N^107-hydroxy-L-arginine): about 10 fold
IC50 (liver arginase activity; liver, read-out: IC50 for inhibition of arginase activity, liver homogenate): 2.4 µM
IC50 (IAS arginase activity): 25 µM
IC50 (brain arginase activity): 40 µM
Compound: N=C(NO)NCCC[C@H](N)C(=O)O [N-hydroxyarginine, N^ω-hydroxy-L-arginine]
Ki (arginase [3]): 42 µM
decrease in IAS tension after L-HO-Arg ([2]; 0.5 Hertz EFS): 57.4±4.9%
decrease in IAS tension after L-HO-Arg ([2]; 1 Hertz EFS): 68.8±4.9%
effect on arginase-suppressed EFS-induced IAS relaxation ([2]; exogenous arginase, L-HO-Arg 1×10^−4 molar): antagonized the effect of arginase; also recorded: reversal
augmentation of NANC nerve-mediated IAS relaxation by EFS ([2]; lower frequencies of EFS, listed as L-HO-Arg): significant and concentration-dependent augmentation
reversal of L-NNA-suppressed IAS relaxation [2]: dose-dependent and complete reversal; also recorded: completely reversed

Compound: NC(CCCCC(N)C(=O)O)=NO (centres unmarked) [N-hydroxyindospicine]
Ki (arginase [3]): 20 µM

Compound: NCCCC[C@H](NO)C(=O)O [N-hydroxylysine]
Ki (arginase [3]): 4 µM

Compound: O[B-](O)(O)O [borate]
Ki (arginase [1]; non-competitive inhibitor, read-out: KII): 260 µM
Ki (arginase [1]; non-competitive inhibitor, read-out: KIS): 980 µM

fold less potent than compounds 7 and 15 (from tnpseudo) (rat liver arginase [5]; substrate 18): about 400 fold
Compound: N[C@@H](CCCB(O)O)C(=O)O [compound 12, 2(S)-amino-5-boronopentanoic acid]
tnpseudo (moles of inhibitor/mole of arginase) (rat liver arginase [5]): 420 ± 30 moles of inhibitor/mole of arginase

Compound: N[C@@H](CSCCB(O)O)C(=O)O [compound 15, S-(2-boronoethyl)-L-cysteine]
Kd (arginase [6]): 2.22 µM
association constant (Ka) (arginase [6]; pH 8.5, 25° C.): 4.50×10^5 inverse molar
enthalpy change (ΔH) of binding (arginase [6]; pH 8.5, 25° C.): −12.75 kilocalories per mole
stoichiometry (n), moles bound per mole of arginase monomer (arginase [6]; pH 8.5, 25° C.): 0.96 and 0.964
Ki (rat liver arginase [7]): 0.7 µM
tnpseudo (moles of inhibitor/mole of arginase) (rat liver arginase [5]): 1.00 ± 0.004 moles of inhibitor/mole of arginase

Ki (rat liver arginase [5]; assay with substrate 18, assuming competitive inhibition): 420 µM
Compound: N[C@@H](CSCC[Si](O)(O)O)C(=O)O [compound 16, S-(2-trihydroxysilylethyl)-L-cysteine]

kcat for arginase-catalyzed hydrolysis (rat liver arginase [5]; as substrate, monomer 35 kilodaltons): 0.09±0.02 reciprocal minutes
Compound: N=C(N)Nc1cccc([N+](=O)[O-])c1 [compound 18, 1-nitro-3-guanidinobenzene]

Compound: NCCC[C@H](N)C(=O)O [ornithine]
Ki (arginase [1]; read-out: Ki): 1000 µM
